Data set [1] in a line: Rat single dose pharmacokinetics. Format: in vivo. As to conditions: male, plasma, iv, Sprague Dawley rats; for Vd: read-out: Vss. On the procedure:
Male Sprague Dawley rats were obtained from Zhejiang Vital River Laboratory Animal Technology Co., Ltd. The animals in IV group had free access to water and food. The animals in PO group were fasted overnight before dosing and provided with food 2 hours post dosing. The IV dose solution was prepared in 10% DMA/50% PG/40% HPOCD solution (40% w/v aqueous HPOCD) at a concentration of 1 mg/mL. The oral dosing suspension was prepared by suspending Test Article in 0.5% HPMC/0.1% Tween 80 in water at a concentration 0.2 mg/mL. Concentrations of IV and PO doses were measured at the end of the study. Pharmacokinetic parameters were calculated using the nominal dose values if the measured values were within 20% of the nominal values. Three rats were dosed IV via a bolus injection via caudal vein. Three rats per dose group were dosed by oral gavage. Blood samples were collected from the jugular vein cannula at predose, 5 (IV only),15, 30 minutes, and 1, 2, 4, 6, and 24 hours post-dose. Blood volumes were replaced with an equal amount of sterile 0.9% saline. Blood samples were centrifuged and the collected plasma was stored at −80° C. for subsequent analysis. Plasma samples were analyzed for Test Article concentrations using a LC/MS/MS method. Briefly, a 50 μL aliquot of each plasma sample was mixed with 100 μL of acetonitrile that contained an internal standard. The mixture was vortexed and centrifuged. Ten (10) μL of the resulting solution was injected onto a reverse-phase C18 column and the resultant peaks detected on a LC/MS/MS equipped with a turbo ionspray ionization source. Sample concentrations below the limit of quantification (BLQ) were treated as zero for pharmacokinetic calculations. Pharmacokinetic parameters were estimated from individual animals using noncompartmental analysis of the concentration-time data (Phoenix WinNonLin software, version 64; Pharsight, Mountain View, CA). The elimination rate constant (k) was calculated as the absolute value of the slope of the linear regression of logarithm (log) of the concentration versus time for the last three data points of the concentration-time profiles. Apparent elimination half-life (t1/2) values were calculated as In(2)/k. Area under the concentration-time curve (AUC) values were estimated using linear trapezoidal method. AUC values were calculated from the dosing time to the last measurable concentration. AUC∞ values were calculated as the sum of the corresponding AUC and the ratio of the last detectable concentration divided by k (AUCt-∞). Plasma clearance (CL) was calculated from Dose/AUC∞. Mean resident time (MRT) was estimated by moment analysis. Volume of distribution at steady state (Vss) was calculated from MRT∞×CL. Maximum concentration (Cmax) and time to reach Cmax (tmax) were recorded as observed. Bioavailability was calculated from the ratio of dose normalized AUC∞,po of individual rats/mean dAUC∞,iv×100% where dAUC was the dose normalized AUC value. Compounds tested were prepared in accordance with the synthetic procedures described herein.

The nature of data set [2]: Dog single dose pharmacokinetics. Type of data set: in vivo. Conditions: male, plasma, intravenous, beagle dogs; for Vd: read-out: Vss. How it is done:
Non-naïve male beagle dogs (8 months −3 years of age, body weight 8-13 kg) were used in this study. All animals for IV administration had free access to food and water; all animals for PO were fasted overnight prior to dosing and were fed approximately 6 hours after dosing. For the animals in PO group, pentagastrin (6.0 μg/kg, i.m.) was administrated 20 minutes before dosing PO formulation and 1.5 hours after the second pentagastrin dosing. The dosing volume was 0.024 mL/kg, the concentration was 250 μg/mL in DMSO/1 N NaOH/PBS. 10 mL of 0.001 N HCl was used to wash the gavage catheter for each animal. The IV dose solution was prepared in 10% DMA/50% PG/40% HPOCD solution (40% w/v aqueous HPOCD) at a concentration of 1.0 mg/mL. The oral dose suspension was prepared by suspending the compound in 0.5% HPMC/0.1% Tween 80 in distilled water at a concentration of 0.2 mg/mL. Concentrations of IV and PO doses were measured at the end of the study. PK parameters were calculated using the nominal dose values if the measured values were within 20% of the nominal values. Blood samples were collected by venipuncture of peripheral veins except the dosing vein at pre-dose, 5 15, 30 min, 1, 2, 4, 6, 8, 24 and 48 h post-dose. Blood samples were centrifuged and resultant plasma was frozen for bioanalysis. Plasma samples were stored at −80° C. before analysis. Plasma samples were analyzed for compound concentrations using the LC/MS/MS method. Briefly, a 50 μL aliquot of each plasma sample was mixed with 100 μL of acetonitrile that contained an internal standard. The mixture was vortexed and centrifuged. Ten (10) μL of the resulting solution was injected onto a reverse-phase C18 column and the resultant peaks detected on a LC/MS/MS equipped with a turbo ionspray ionization source. Sample concentrations below the limit of quantification (BLQ) were treated as zero for PK calculations. PK parameters were estimated from individual animals using noncompartmental analysis of the concentration-time data (Phoenix WinNonLin software, version 64; Pharsight, Mountain View, CA). The elimination rate constant (k) was calculated as the absolute value of the slope of the linear regression of logarithm (log) of the concentration versus time for the last three data points of the concentration-time profiles. Apparent elimination half-life (t1/2) values were calculated as 1n(2)/k. Area under the concentration-time curve (AUC) values were estimated using linear trapezoidal method. AUCt values were calculated from the dosing time to the last measurable concentration. AUC∞ values were calculated as the sum of the corresponding AUC and the ratio of the last detectable concentration divided by k. Plasma clearance (CL) was calculated from Dose/AUC∞. Mean resident time extrapolated to infinity (MRT∞) was estimated by moment analysis. VSS, was calculated from MRT∞×CL. Maximum concentration (Cmax) and time to reach Cmax (tmax) were recorded as observed. As this was a cross-over study, bioavailability was calculated dAUC∞,po/dAUC∞,iv×100% where dAUC was the dose normalized AUC value from the same animal given IV and PO dose. Compounds tested were prepared in accordance with the synthetic procedures described herein.

For the molecule `O=CN1CC2(C1)C(=O)N([C@H]1CC[C@H](C(F)F)CC1)CC(=O)N2Cc1ccc(C(F)(F)F)cc1` [Comparator E, 8-((1r,4r)-4-(difluoromethyl)cyclohexyl)-6,9-dioxo-5-(4-(trifluoromethyl)benzyl)-2,5,8-triazaspiro[3.5]nonane-2-carbaldehyde], in data set [1], the clearance was 18.8 mL/min/kg, the half-life was 5.4 h and the Vd was determined as 8.23 L/kg. For the same molecule, in data set [2], the clearance is 1.49 mL/min/kg and the Vd was determined as 4.1 L/kg.

Take `CC(=O)N1CC2(C1)C(=O)N(c1ccc(C#N)cc1F)CC(=O)N2Cc1ccc(C(F)(F)F)cc1` [Comparator D, 4-(2-acetyl-6,9-dioxo-5-(4-(trifluoromethyl)benzyl)-2,5,8-triazaspiro[3.5]nonan-8-yl)-3-fluorobenzonitrile]: in data set [1], the clearance came out at 8.23 mL/min/kg, the half-life was 4.84 h and the Vd came out at 2.98 L/kg. For the same molecule, in data set [2], the clearance amounted to 3.55 mL/min/kg and the Vd came out at 6.7 L/kg.

`C[C@H]1CC[C@H](N2CC(=O)N(Cc3ccc(F)c(F)c3)C3(CN(C=O)C3)C2=O)CC1` [Compound 1, 5-(3,4-difluorobenzyl)-8-((1r,4r)-4-methylcyclohexyl)-6,9-dioxo-2,5,8-triazaspiro[3.5]nonane-2-carbaldehyde]: in data set [1], the clearance was found to be 52.6 mL/min/kg, the half-life is 3.34 h and the Vd is 13 L/kg. In data set [2], the clearance is 7.57 mL/min/kg and the Vd was 4.23 L/kg.

As for `O=C1[C@H](C2COC2)N(Cc2ccc(C(F)(F)F)cc2)C(=O)CN1c1ncc(Cl)cc1F` [Comparator C, (S)-1-(5-chloro-3-fluoropyridin-2-yl)-3-(oxetan-3-yl)-4-(4-(trifluoromethyl)benzyl)piperazine-2,5-dione, reference compound], in data set [1], the clearance was 20.2 mL/min/kg, the half-life was 3.3 h and the Vd turned out to be 5.2 L/kg. Further, in data set [2], the clearance was 4.92 mL/min/kg and the Vd turned out to be 5.91 L/kg.

Consider `O=CN1CC2(C1)C(=O)N(c1ccc(F)cc1F)CC(=O)N2Cc1ccc(Cl)cc1` [Comparator A, 5-(4-chlorobenzyl)-8-(2,4-difluorophenyl)-6,9-dioxo-2,5,8-triazaspiro[3.5]nonane-2-carbaldehyde], for which, in data set [1], the clearance came out at 29.6 mL/min/kg, the half-life was 6.48 h and the Vd came to 15.1 L/kg. Moreover, in data set [2], the clearance came out at 1.59 mL/min/kg and the Vd was determined as 5.2 L/kg.

For orientation: clearance means the rate of elimination divided by the concentration. A high value points to a high capacity for elimination. The term half-life denotes how long it takes for the measured level to halve. A higher half-life goes with slow decline.

(Values after patent US20240132498A1, “CRYSTALLINE FORMS OF 5-(3,4-DIFLUOROBENZYL)-8-((1R,4R)-4-METHYLCYCLOHEXYL)-6,9-DIOXO-2,5,8-TRIAZASPIRO[3.5]NONANE-2-CARBALDEHYDE” (Cytokinetics, Incorporated, priority 2022, published 2024).)
